Measurements reported in PubChem BioAssay (NCI).
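Five concentrations, 48 hours, 96-well plates. GI50 is the concentration that inhibits growth by half. TGI: total growth inhibition.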

Tests used:
Assay in all cases: NCI anticancer screen, dose series, 48 h
A498 renal = test system: A498 renal
A549 NSCLC = test system: A549 NSCLC
CAKI-1 renal = test system: CAKI-1 renal
CCRF-CEM leukemia = test system: CCRF-CEM leukemia
DU-145 prostate = test system: DU-145 prostate
EKVX NSCLC = test system: EKVX NSCLC
HOP-62 NSCLC = test system: HOP-62 NSCLC
HOP-92 NSCLC = test system: HOP-92 NSCLC
HS 578T breast = test system: HS 578T breast
K-562 leukemia = test system: K-562 leukemia
LOX IMVI melanoma = test system: LOX IMVI melanoma
MDA-MB-231 breast = test system: MDA-MB-231 breast
MDA-MB-435 = test system: MDA-MB-435
NCI-H226 lung = test system: NCI-H226 lung
NCI/ADR-RES ovarian = test system: NCI/ADR-RES ovarian
OVCAR-4 ovarian = test system: OVCAR-4 ovarian
OVCAR-5 ovarian = test system: OVCAR-5 ovarian
RPMI-8226 leukemia = test system: RPMI-8226 leukemia
SF-268 CNS = test system: SF-268 CNS
SK-MEL-2 melanoma = test system: SK-MEL-2 melanoma
SK-OV-3 ovarian = test system: SK-OV-3 ovarian
SNB-75 CNS = test system: SNB-75 CNS
SR leukemia = test system: SR leukemia
T-47D breast = test system: T-47D breast
TK-10 renal = test system: TK-10 renal
UACC-257 melanoma = test system: UACC-257 melanoma
786-0 renal = test system: 786-0 renal
ACHN renal = test system: ACHN renal
BT-549 breast = test system: BT-549 breast
COLO 205 colon = test system: COLO 205 colon
HCC-2998 colon = test system: HCC-2998 colon
HCT-116 colon = test system: HCT-116 colon
HCT-15 colon = test system: HCT-15 colon
HL-60(TB) leukemia = test system: HL-60(TB) leukemia
HT29 colon = test system: HT29 colon
IGROV1 ovarian = test system: IGROV1 ovarian
KM12 colon = test system: KM12 colon
M14 melanoma = test system: M14 melanoma
MALME-3M melanoma = test system: MALME-3M melanoma
MCF7 breast = test system: MCF7 breast
MOLT-4 leukemia = test system: MOLT-4 leukemia
NCI-H23 lung = test system: NCI-H23 lung
NCI-H460 lung = test system: NCI-H460 lung
NCI-H522 lung = test system: NCI-H522 lung
OVCAR-8 ovarian = test system: OVCAR-8 ovarian
PC-3 prostate = test system: PC-3 prostate
RXF 393 renal = test system: RXF 393 renal
SF-295 CNS = test system: SF-295 CNS
SF-539 CNS = test system: SF-539 CNS
SK-MEL-28 melanoma = test system: SK-MEL-28 melanoma
SK-MEL-5 melanoma = test system: SK-MEL-5 melanoma
SN12C renal = test system: SN12C renal
SNB-19 CNS = test system: SNB-19 CNS
SW-620 colon = test system: SW-620 colon
U251 CNS = test system: U251 CNS
UACC-62 melanoma = test system: UACC-62 melanoma
UO-31 renal = test system: UO-31 renal

In the case of `COc1cc(/C=C/C(=O)c2ccc(C)cc2)ccc1Oc1nc(NCCO)nc(N2CCOCC2)n1`, the GI50 (A498 renal) is reported as > 100 µM, the TGI (A498 renal) is reported as > 100 µM and the GI50 (A549 NSCLC) is reported as 9.47 µM. For the same molecule, the TGI (A549 NSCLC) was > 100 µM, the GI50 (CAKI-1 renal) was 5.02 µM and the TGI (CAKI-1 renal) was > 100 µM. For the same molecule, the GI50 (CCRF-CEM leukemia) was 2.71 µM, the TGI (CCRF-CEM leukemia) was > 100 µM and the GI50 (DU-145 prostate) was 3.79 µM. For the same molecule, the TGI (DU-145 prostate) was > 100 µM, the GI50 (EKVX NSCLC) was 3.9 µM and the TGI (EKVX NSCLC) was > 100 µM. For the same molecule, the GI50 (HOP-62 NSCLC) was 16.6 µM, the TGI (HOP-62 NSCLC) was > 100 µM and the GI50 (HOP-92 NSCLC) was 8.4 µM. For the same molecule, the TGI (HOP-92 NSCLC) was > 100 µM, the GI50 (HS 578T breast) was 4.6 µM and the TGI (HS 578T breast) was > 100 µM. The GI50 (K-562 leukemia) was 1.53 µM, the TGI (K-562 leukemia) was > 100 µM and the GI50 (LOX IMVI melanoma) was 0.43 µM. For the same molecule, the TGI (LOX IMVI melanoma) was 1.5 µM, the GI50 (MDA-MB-231 breast) was 2.98 µM and the TGI (MDA-MB-231 breast) was > 100 µM. The GI50 (MDA-MB-435) was 3.31 µM, the TGI (MDA-MB-435) was > 100 µM and the GI50 (NCI-H226 lung) was 6.28 µM. For the same molecule, the TGI (NCI-H226 lung) was > 100 µM, the GI50 (NCI/ADR-RES ovarian) was 2.08 µM and the TGI (NCI/ADR-RES ovarian) was 4.57 µM. For the same molecule, the GI50 (OVCAR-4 ovarian) was 3.92 µM, the TGI (OVCAR-4 ovarian) was > 100 µM and the GI50 (OVCAR-5 ovarian) was 3.22 µM. For the same molecule, the TGI (OVCAR-5 ovarian) was > 100 µM, the GI50 (RPMI-8226 leukemia) was 1.72 µM and the TGI (RPMI-8226 leukemia) was 6.02 µM. The GI50 (SF-268 CNS) was 2.9 µM, the TGI (SF-268 CNS) was > 100 µM and the GI50 (SK-MEL-2 melanoma) was 8.17 µM. The TGI (SK-MEL-2 melanoma) was > 100 µM, the GI50 (SK-OV-3 ovarian) was 23 µM and the TGI (SK-OV-3 ovarian) was > 100 µM. For the same molecule, the GI50 (SNB-75 CNS) was > 100 µM, the TGI (SNB-75 CNS) was > 100 µM and the GI50 (SR leukemia) was 1.06 µM. For the same molecule, the TGI (SR leukemia) was 7.16 µM, the GI50 (T-47D breast) was 2.98 µM and the TGI (T-47D breast) was > 100 µM. For the same molecule, the GI50 (TK-10 renal) was > 100 µM, the TGI (TK-10 renal) was > 100 µM and the GI50 (UACC-257 melanoma) was 3.98 µM. The TGI (UACC-257 melanoma) was > 100 µM.
For `CC(=O)/C(N=Nc1ccc2oc(=O)ccc2c1)=C(\C)O`, the GI50 (786-0 renal) was 5.31 µM, the TGI (786-0 renal) was 17.4 µM and the GI50 (A498 renal) was 2.34 µM. For the same molecule, the TGI (A498 renal) was 10.4 µM, the GI50 (A549 NSCLC) was 3.2 µM and the TGI (A549 NSCLC) was 13.3 µM. The GI50 (ACHN renal) was 0.553 µM, the TGI (ACHN renal) was 11.9 µM and the GI50 (BT-549 breast) was 3.12 µM. It also gave a TGI (BT-549 breast) of 8.52 µM, a GI50 (CAKI-1 renal) of 2.16 µM and a TGI (CAKI-1 renal) of 14.6 µM. It also gave a GI50 (CCRF-CEM leukemia) of 1.65 µM, a TGI (CCRF-CEM leukemia) of 13.4 µM and a GI50 (COLO 205 colon) of 1.76 µM. For the same molecule, the TGI (COLO 205 colon) was 3.39 µM, the GI50 (DU-145 prostate) was 4.71 µM and the TGI (DU-145 prostate) was 19 µM. For the same molecule, the GI50 (EKVX NSCLC) was 2.72 µM, the TGI (EKVX NSCLC) was 15.1 µM and the GI50 (HCC-2998 colon) was 3.99 µM. The TGI (HCC-2998 colon) was 15.7 µM, the GI50 (HCT-116 colon) was 2.23 µM and the TGI (HCT-116 colon) was 12 µM. The GI50 (HCT-15 colon) was 0.495 µM, the TGI (HCT-15 colon) was 13.7 µM and the GI50 (HL-60(TB) leukemia) was 1.12 µM. The TGI (HL-60(TB) leukemia) was 9.15 µM, the GI50 (HOP-62 NSCLC) was 3.62 µM and the TGI (HOP-62 NSCLC) was 16.3 µM. It also gave a GI50 (HOP-92 NSCLC) of 2.46 µM, a TGI (HOP-92 NSCLC) of 7.43 µM and a GI50 (HS 578T breast) of 3.64 µM. For the same molecule, the TGI (HS 578T breast) was 19 µM, the GI50 (HT29 colon) was 2.96 µM and the TGI (HT29 colon) was 12.7 µM. For the same molecule, the GI50 (IGROV1 ovarian) was 2.93 µM, the TGI (IGROV1 ovarian) was 16.3 µM and the GI50 (K-562 leukemia) was 0.528 µM. It also gave a TGI (K-562 leukemia) of 17 µM, a GI50 (KM12 colon) of 3.36 µM and a TGI (KM12 colon) of 13.7 µM. For the same molecule, the GI50 (LOX IMVI melanoma) was 2.92 µM, the TGI (LOX IMVI melanoma) was 12.4 µM and the GI50 (M14 melanoma) was 2.77 µM. For the same molecule, the TGI (M14 melanoma) was 15.7 µM, the GI50 (MALME-3M melanoma) was 3 µM and the TGI (MALME-3M melanoma) was 13.6 µM. It also gave a GI50 (MCF7 breast) of 2.49 µM, a TGI (MCF7 breast) of 13 µM and a GI50 (MDA-MB-231 breast) of 4.77 µM. The TGI (MDA-MB-231 breast) was 18.1 µM, the GI50 (MDA-MB-435) was 3.88 µM and the TGI (MDA-MB-435) was 15.5 µM. For the same molecule, the GI50 (MOLT-4 leukemia) was 2.66 µM, the TGI (MOLT-4 leukemia) was 12.7 µM and the GI50 (NCI-H226 lung) was 2.48 µM. For the same molecule, the TGI (NCI-H226 lung) was 15.2 µM, the GI50 (NCI-H23 lung) was 3.37 µM and the TGI (NCI-H23 lung) was 15.8 µM. The GI50 (NCI-H460 lung) was 2.11 µM, the TGI (NCI-H460 lung) was 12.1 µM and the GI50 (NCI-H522 lung) was 2.12 µM. It also gave a TGI (NCI-H522 lung) of 10.8 µM, a GI50 (NCI/ADR-RES ovarian) of 0.29 µM and a TGI (NCI/ADR-RES ovarian) of 13.2 µM. For the same molecule, the GI50 (OVCAR-4 ovarian) was 3.81 µM, the TGI (OVCAR-4 ovarian) was 18.7 µM and the GI50 (OVCAR-5 ovarian) was 5.04 µM. The TGI (OVCAR-5 ovarian) was 18.4 µM, the GI50 (OVCAR-8 ovarian) was 2.72 µM and the TGI (OVCAR-8 ovarian) was 13.6 µM. For the same molecule, the GI50 (PC-3 prostate) was 2.73 µM, the TGI (PC-3 prostate) was 12.3 µM and the GI50 (RPMI-8226 leukemia) was 1.89 µM. It also gave a TGI (RPMI-8226 leukemia) of 11.4 µM, a GI50 (RXF 393 renal) of 2.99 µM and a TGI (RXF 393 renal) of 16.3 µM. For the same molecule, the GI50 (SF-268 CNS) was 5.14 µM, the TGI (SF-268 CNS) was 21.1 µM and the GI50 (SF-295 CNS) was 2.22 µM. For the same molecule, the TGI (SF-295 CNS) was 12.7 µM, the GI50 (SF-539 CNS) was 4.11 µM and the TGI (SF-539 CNS) was 14.1 µM. For the same molecule, the GI50 (SK-MEL-28 melanoma) was 4.53 µM, the TGI (SK-MEL-28 melanoma) was 16.4 µM and the GI50 (SK-MEL-5 melanoma) was 2.09 µM. It also gave a TGI (SK-MEL-5 melanoma) of 4.92 µM, a GI50 (SK-OV-3 ovarian) of 4.31 µM and a TGI (SK-OV-3 ovarian) of 15.1 µM. It also gave a GI50 (SN12C renal) of 2.58 µM, a TGI (SN12C renal) of 14.7 µM and a GI50 (SNB-19 CNS) of 3.39 µM. It also gave a TGI (SNB-19 CNS) of 15 µM, a GI50 (SNB-75 CNS) of 5 µM and a TGI (SNB-75 CNS) of 18.6 µM. For the same molecule, the GI50 (SR leukemia) was 1.67 µM, the TGI (SR leukemia) was 7.73 µM and the GI50 (SW-620 colon) was 3.15 µM. It also gave a TGI (SW-620 colon) of 13.7 µM, a GI50 (T-47D breast) of 1.84 µM and a TGI (T-47D breast) of 9.19 µM. It also gave a GI50 (TK-10 renal) of 2.35 µM, a TGI (TK-10 renal) of 12.7 µM and a GI50 (U251 CNS) of 2.77 µM. The TGI (U251 CNS) was 12.5 µM, the GI50 (UACC-257 melanoma) was 3.36 µM and the TGI (UACC-257 melanoma) was 14.8 µM. The GI50 (UACC-62 melanoma) was 2.64 µM, the TGI (UACC-62 melanoma) was 12.2 µM and the GI50 (UO-31 renal) was 0.355 µM. For the same molecule, the TGI (UO-31 renal) was 11.8 µM.
